From article PMC12126525, “Mechanism of ATP hydrolysis in the Hsp70 BiP nucleotide-binding domain” (Nature Communications, 2025)
Entries after “also recorded” stand apart in the source; their conditions may differ. Values belong to the molecule of their own block, whether it stands above or below them.

Experiments:
BiP NBD [1] = target: T1, BiP NBD (Homo sapiens, UniProt P11021); assay: Equilibrium 2D methyl-TROSY NMR fingerprint spectra with ligands (ATP analogs, calcium); assay type: binding; parameters: His6 (N, cleaved yes); made in house; host or cells: E. coli BL21-(DE3)-Lemo, pET28a vector; conditions: 2D methyl-TROSY compared with in-cyclo states
Experimental: First, we probed calcium binding to ADP-bound NBD by NMR equilibrium experiments. […] (Supplementary Fig. 15d). […] (Supplementary Fig. 16).
AMPPNP (adenylyl imidodiphosphate; Jena-bioscience), AMPPCP (adenylyl methylenediphosphate; Jena-bioscience) and ATP-γ-S (adenosine 5’-(gamma-thiotriphosphate; Jena-bioscience) were dissolved in the HKM reaction buffer (25 mM HEPES, pH 7.5, 150 mM KCl and 10 mM MgCl2) at a concentration of 50 mM directly before to be mixed with the BiP NBD sample. Samples were prepared fresh before each use to minimize the known instability of these analogs that undergo slow hydrolysis in solution.
Supplementary Figure 7. Analysis of the BiP NBD ATP-bound state. a, Combined methyl chemical shift differences between the APD·Pi-bound and the ATP-bound state of BiP NBD in-cyclo. The magnitude of 1 and 1.5 SDs are indicated by an orange and a red line, respectively. b, Overlay of 9 crystal structures of BiP NBD in presence of different nucleotides (colored sticks). c, Backbone root means square deviation (RMSD - Å) between the structures shown in (b) and the NBD apo state (PDB 3LDN). d, 2D [13C,1H]-TROSY spectrum of methyl-labeled BiP NBD in equilibrium with the ATP analogs AMPPNP (green), AMPPCP (orange) or ATP-γ-S (yellow), overlayed with the spectrum in-cyclo (pink).
State- and sequence-specific resonance assignments are indicated for the ADP-bound (light blue), ADP·Pi-bound (dark blue) and the ATP-bound (red) states in-cyclo.
(§1) (1 picture or pasted object on this page, not shown here)
Supplementary Figure 15. Mapping of calcium binding to BiP NBD. a, Selected details from published structures of BiP. From left to right: yeast BiP(NBD)-Mg2+-ADP (PDB 3QFU), human BiP(NBD)-Mg2+- ADP·Pi (PDB 5EVZ), human BiP(NBD)-Ca2+-ADP (PDB 6ZYH). b, Selected sections of 2D [13C,1H]-methyl-TROSY spectra of residue val50cg1 or Ile52cd1 for the equilibrium experiments of NBD apo (grey), NBD with 5 mM Pi (green), NBD with 1 mM ADP (light blue), NBD with 1 mM ADP·Pi (dark blue), NBD with 1 mM ADP-Ca2+ (dark-pink).and NBD with 3.3 mM calcium ([Mg2+]/[Ca2+]=3) (light-pink). c, Combined methyl chemical shift differences between the BiP NBD APD and the ADP-Ca2+-bound state. The magnitude of 1 and 1.5 SDs are indicated by a light blue and a dark blue line. d, Structure of NBD in […]
the ADP-Ca-bound state (PDB 6ZYH).

BiP NBD [2] = target: T1, BiP NBD; assay: NMR experiment with MABA-ATP (no E1, no E2) and kinetic fit of the MABA-ATP/MABA-ADP functional cycle; assay type: biochemical; parameters: His6 (N, cleaved yes); made in house; host or cells: E. coli BL21-(DE3)-Lemo, pET28a vector; conditions: for species: Supplementary Fig 13b
Experimental: […] After the equilibration time 2D [^13C,^1H]-HMQC spectra were recorded in interleaved mode with 1D ^1H NMR spectra. […] The same setup was used for the alternative experiments by including or excluding E1 and/or E2. When E1 was not included, the ratio of the ATP/ADP NMR signals was used to monitor their relative concentrations.
as §1

BiP = conditions: NBD·MABA-ATP ⇌ NBD + MABA-ATP; cited from earlier work
Hsp70 = test system: Hsp70; parameters: method as in PMID 8226982; conditions: optimal range of concentration between 100 and 150 mM; cited from earlier work
[3] = MABA-ATP instead of ATP, reactions 1MABA, 2MABA, 3

T1 sequence (P11021 19-406): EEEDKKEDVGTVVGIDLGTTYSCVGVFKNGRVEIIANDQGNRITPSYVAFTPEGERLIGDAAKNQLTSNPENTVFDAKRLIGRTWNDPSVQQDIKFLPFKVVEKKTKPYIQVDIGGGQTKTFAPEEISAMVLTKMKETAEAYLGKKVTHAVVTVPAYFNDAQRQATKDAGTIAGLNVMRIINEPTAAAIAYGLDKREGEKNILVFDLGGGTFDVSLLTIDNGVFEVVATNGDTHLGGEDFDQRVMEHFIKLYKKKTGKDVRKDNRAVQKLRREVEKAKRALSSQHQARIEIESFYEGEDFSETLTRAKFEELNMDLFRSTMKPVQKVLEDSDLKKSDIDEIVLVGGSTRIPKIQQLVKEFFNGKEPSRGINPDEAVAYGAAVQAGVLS

Structure (SMILES): Nc1ncnc2c1ncn2[C@@H]1O[C@H](COP(=O)(O)OP(=O)(O)CP(=O)(O)O)[C@@H](O)[C@H]1O [AMPPCP, adenylyl methylenediphosphate]
NMR fingerprint of BiP NBD with the ligand (BiP NBD [1]): resemble the ADP·Pi-bound state rather than the ATP-bound state

Structure (SMILES): Nc1ncnc2c1ncn2[C@@H]1O[C@H](COP(=O)(O)OP(=O)(O)NP(=O)(O)O)[C@@H](O)[C@H]1O [AMPPNP, adenylyl imidodiphosphate]
NMR fingerprint of BiP NBD with the ligand (BiP NBD [1]): resemble the ADP·Pi-bound state rather than the ATP-bound state

Structure (SMILES): Nc1ncnc2c1ncn2[C@@H]1O[C@H](CO[P@](=O)(O)O[P@](=O)(O)O[P@@](=O)(O)S)[C@@H](O)[C@H]1O [ATP-γ-S, adenosine 5’-(gamma-thiotriphosphate)]
NMR fingerprint of BiP NBD with the ligand (BiP NBD [1]): resemble the ADP·Pi-bound state rather than the ATP-bound state; also recorded: showed a peak splitting, indicating the formation of a heterogenous mix of conformations

koff (BiP NBD [2]; [3]): 0.035 ± 0.008 s⁻¹
kon (BiP NBD [2]; [3]): 37000 ± 6000 M⁻¹ s⁻¹
Kd (BiP NBD [2]; MABA-ATP instead of ATP, reactions 1MABA, 2MABA, 3: release to apo NBD, T = 37°C): 950 ± 100 nM
kcat (BiP NBD [2]; NBD·MABA-ATP → NBD·MABA-ADP·Pi): 0.036 s⁻¹
Structure (SMILES): CNc1ccccc1C(=O)NCCCCNc1nc2c(N)ncnc2n1[C@@H]1O[C@H](COP(=O)(O)OP(=O)(O)OP(=O)(O)O)[C@@H](O)[C@H]1O [MABA-ATP, 8-[(4-Amino)butyl]-amino-ATP-MAN]
Kd (BiP): 1000 nM
koff1 (MABA-ATP) (BiP): 0.031 s⁻¹
kon (BiP): 32000 M⁻¹ s⁻¹

species (BiP NBD [2]; time 4 min): 649 µM
species (BiP NBD [2]; time 10 min): 492.3 µM
species (BiP NBD [2]; time 16 min): 374.2 µM
species (BiP NBD [2]; time 22 min): 287.7 µM
species (BiP NBD [2]; time 28 min): 199.6 µM
species (BiP NBD [2]; time 34 min): 160.1 µM
species (BiP NBD [2]; time 40 min): 111.4 µM
species (BiP NBD [2]; time 46 min): 92.6 µM
species (BiP NBD [2]; time 52 min): 70.6 µM
species (BiP NBD [2]; time 58 min): 65.7 µM
species (BiP NBD [2]; time 64 min): 67.7 µM
Structure (SMILES): CNc1ccccc1C(=O)NCCCCNc1nc2c(N)ncnc2n1[C@@H]1O[C@H](COP(=O)(O)OP(=O)(O)OP(=O)(O)O)[C@@H](O)[C@H]1O [MABAATP]

Structure (SMILES): [K+] [potassium]
increase of the Hsp70 ATP hydrolysis activity (Hsp70): 5 fold
